Measured values reported in patent US12091402B2 (Avilar Therapeutics, Inc., priority 2021, dated 2024).
Read-outs that look alike come from different tables or passages of the source. Where a SMILES comes first, the peptide text is derived from it. Bridges are numbered along the chain shown (N, C = ends). [ ]: non-standard residue; d: D form. Pro(4S-NH2) = N[C@@H]1CN[C@H](C(=O)O)C1; hSer = N[C@@H](CCO)C(=O)O

Target: IgG
Assay: Affinity to IgG by surface plasmon resonance (SPR)
Format: binding
Experimental: Immobilization levels ranging from 1000-1300 resonance units (RU) are obtained. The running buffer is 10 mM HEPES, pH 7.4, 400 mM NaCl, 0.005% P20, […].

[1] = Biacore 8K, 25° C., IgG on CM5 chip, read-out: IgG SPR Binding Kd

Row | SMILES | Kd (SPR, read-out: IgG KD) | Kd [1]
1 | C#CCCCC(=O)N[C@H]1C[C@H]2C(=O)N[C@@H](CC(=O)O)C(=O)N[C@H]3CSSC[C@H](NC(=O)[C@H](Cc4c[nH]c5ccccc45)NC(=O)[C@H](C(C)C)NC(=O)[C@H](CC(C)C)NC(=O)[C@H](CCC(=O)O)NC(=O)CNC(=O)[C@H](CC(C)C)NC(=O)[C@H](Cc4cnc[nH]4)NC(=O)[C@H](Cc4c[nH]c5ccccc45)NC(=O)[C@H](C)NC3=O)C(=O)N[C@@H]([C@@H](C)O)C(=O)N3CCC[C@@H]3C(=O)N2C1 [Intermediate 8] | < 100 nM | 
2 | CC(C)C[C@@H]1NC(=O)[C@H](C)NC(=O)CNC(=O)[C@H](CC(C)C)NC(=O)[C@H](Cc2cnc[nH]2)NC(=O)[C@H](Cc2c[nH]c3ccccc23)NC(=O)[C@H](C)NC(=O)[C@@H]2CSSC[C@H](NC(=O)[C@H](Cc3c[nH]c4ccccc34)NC(=O)[C@H](C(C)C)NC1=O)C(=O)N[C@@H]([C@@H](C)O)C(=O)N1CCC[C@@H]1C(=O)N1C[C@@H](N)C[C@H]1C(=O)N[C@@H](C)C(=O)N2 [Intermediate 25] (cyclo(ACAWHLGALVWCT[dP][Pro(4S-NH2)]); disulfide 2-12) | < 100 nM | < 100 nM
3 | CC(C)C[C@@H]1NC(=O)[C@H](Cc2cnc[nH]2)NC(=O)[C@H](Cc2c[nH]c3ccccc23)NC(=O)[C@H](C)NC(=O)[C@@H]2CC/C=C/C[C@H](NC(=O)[C@H](Cc3c[nH]c4ccccc34)NC(=O)[C@H](C(C)C)NC(=O)[C@H](CC(C)C)NC(=O)[C@H](CCC(=O)O)NC(=O)CNC1=O)C(=O)N[C@@H]([C@@H](C)O)C(=O)N1CCC[C@@H]1C(=O)N1CCC[C@H]1C(=O)N[C@@H](CC(=O)O)C(=O)N2 | < 100 nM | 
4 | C#CCCCC(=O)NCCOCCC(=O)N[C@H]1C[C@H]2C(=O)N[C@@H](CC(=O)O)C(=O)N[C@H]3CSSC[C@H](NC(=O)[C@H](Cc4c[nH]c5ccccc45)NC(=O)[C@H](C(C)C)NC(=O)[C@H](CC(C)C)NC(=O)[C@H](CCC(=O)O)NC(=O)CNC(=O)[C@H](CC(C)C)NC(=O)[C@H](Cc4cnc[nH]4)NC(=O)[C@H](Cc4c[nH]c5ccccc45)NC(=O)[C@H](C)NC3=O)C(=O)N[C@@H]([C@@H](C)O)C(=O)N3CCC[C@@H]3C(=O)N2C1 [Intermediate 7] |  | < 100 nM
5 | C#CCCCC(=O)NCCOCCOCCOCCOCCC(=O)N[C@@H](CC(=O)O)C(=O)N[C@H]1CSSC[C@@H](C(=O)N[C@H](C(N)=O)[C@@H](C)O)NC(=O)[C@H](Cc2c[nH]c3ccccc23)NC(=O)[C@H](C(C)C)NC(=O)[C@H](CC(C)C)NC(=O)[C@H](CCC(=O)O)NC(=O)CNC(=O)[C@H](CC(C)C)NC(=O)[C@H](Cc2cnc[nH]2)NC(=O)[C@H](Cc2c[nH]c3ccccc23)NC(=O)[C@H](C)NC1=O [Intermediate 1] | < 100 nM | < 100 nM
6 | CC(C)C[C@@H]1NC(=O)[C@H](Cc2cnc[nH]2)NC(=O)[C@H](Cc2c[nH]c3ccccc23)NC(=O)[C@H](C)NC(=O)[C@@H]2CSSC[C@H](NC(=O)[C@H](Cc3c[nH]c4ccccc34)NC(=O)[C@H](C(C)C)NC(=O)[C@H](CC(C)C)NC(=O)[C@H](CCC(N)=O)NC(=O)CNC1=O)C(=O)N[C@@H]([C@@H](C)O)C(=O)N1CCC[C@@H]1C(=O)N1C[C@@H](N)C[C@H]1C(=O)N[C@@H](CC(=O)O)C(=O)N2 [Intermediate 18] (cyclo(AWHLGQLVWCT[dP][Pro(4S-NH2)]DC); disulfide 10-15) | < 100 nM | < 100 nM
7 | CC(C)C[C@@H]1NC(=O)[C@H](Cc2cnc[nH]2)NC(=O)[C@H](Cc2c[nH]c3ccccc23)NC(=O)[C@H](C)NC(=O)[C@@H]2CSSC[C@H](NC(=O)[C@H](Cc3c[nH]c4ccccc34)NC(=O)[C@H](C(C)C)NC(=O)[C@H](CC(C)C)NC(=O)[C@H](CCC(=O)O)NC(=O)CNC1=O)C(=O)N[C@@H]([C@@H](C)O)C(=O)N1CCC[C@@H]1C(=O)N1C[C@@H](N)C[C@H]1C(=O)N[C@@H](C)C(=O)N2 [Intermediate 12] | < 100 nM | < 100 nM
8 | CC(C)C[C@@H]1NC(=O)[C@H](C)NC(=O)CNC(=O)[C@H](CC(C)C)NC(=O)[C@H](Cc2cnc[nH]2)NC(=O)[C@H](Cc2c[nH]c3ccccc23)NC(=O)[C@H](C)NC(=O)[C@@H]2CSSC[C@H](NC(=O)[C@H](Cc3c[nH]c4ccccc34)NC(=O)[C@H](C(C)C)NC1=O)C(=O)N[C@@H]([C@@H](C)O)C(=O)N1CCC[C@@H]1C(=O)N1C[C@@H](N)C[C@H]1C(=O)N[C@@H](CC(N)=O)C(=O)N2 [Intermediate 28] (cyclo(ALVWCT[dP][Pro(4S-NH2)]NCAWHLG); disulfide 5-10) | < 100 nM | < 100 nM
9 | CC(C)C[C@@H]1NC(=O)[C@H](Cc2cnc[nH]2)NC(=O)[C@H](Cc2c[nH]c3ccccc23)NC(=O)[C@H](C)NC(=O)[C@@H]2CSSC[C@H](NC(=O)[C@H](Cc3c[nH]c4ccccc34)NC(=O)[C@H](C(C)C)NC(=O)[C@H](CC(C)C)NC(=O)[C@H](CCC(=O)N(C)C)NC(=O)CNC1=O)C(=O)N[C@@H]([C@@H](C)O)C(=O)N1CCC[C@@H]1C(=O)N1C[C@@H](N)C[C@H]1C(=O)N[C@@H](CC(N)=O)C(=O)N2 [Intermediate 27] (cyclo(AWHLGE(NMe2)LVWCT[dP][Pro(4S-NH2)]NC); disulfide 10-15) | < 100 nM | < 100 nM
10 | CC(C)C[C@@H]1NC(=O)[C@H](Cc2cnc[nH]2)NC(=O)[C@H](Cc2c[nH]c3ccccc23)NC(=O)[C@H](C)NC(=O)[C@@H]2CSSC[C@H](NC(=O)[C@H](Cc3c[nH]c4ccccc34)NC(=O)[C@H](C(C)C)NC(=O)[C@H](CC(C)C)NC(=O)[C@H](CCC(=O)O)NC(=O)CNC1=O)C(=O)N[C@@H]([C@@H](C)O)C(=O)N1CCC[C@@H]1C(=O)N1C[C@H](N)C[C@H]1C(=O)N[C@@H](CC(=O)O)C(=O)N2 [Intermediate 30] | < 100 nM | 
11 | C#CCCCC(=O)NCCOCCOCCOCCOCCNC(=O)CC[C@@H]1NC(=O)CNC(=O)[C@H](CC(C)C)NC(=O)[C@H](Cc2cnc[nH]2)NC(=O)[C@H](Cc2c[nH]c3ccccc23)NC(=O)[C@H](C)NC(=O)[C@@H](NC(=O)[C@@H](N)CC(=O)O)CSSC[C@@H](C(=O)N[C@H](C(N)=O)[C@@H](C)O)NC(=O)[C@H](Cc2c[nH]c3ccccc23)NC(=O)[C@H](C(C)C)NC(=O)[C@H](CC(C)C)NC1=O [Intermediate 2] |  | < 100 nM
12 | C#CCCCC(=O)NCCOCCOCCOCCOCCN[C@@H](CC(=O)O)C(=O)N[C@H]1CSSC[C@@H](C(=O)N[C@H](C(N)=O)[C@@H](C)O)NC(=O)[C@H](Cc2c[nH]c3ccccc23)NC(=O)[C@H](C(C)C)NC(=O)[C@H](CC(C)C)NC(=O)[C@H](CCC(=O)O)NC(=O)CNC(=O)[C@H](CC(C)C)NC(=O)[C@H](Cc2cnc[nH]2)NC(=O)[C@H](Cc2c[nH]c3ccccc23)NC(=O)[C@H](C)NC1=O [Intermediate 3] |  | < 100 nM
13 | CC(C)C[C@@H]1NC(=O)[C@H](Cc2cnc[nH]2)NC(=O)[C@H](Cc2c[nH]c3ccccc23)NC(=O)[C@H](CCO)NC(=O)[C@@H]2CSSC[C@H](NC(=O)[C@H](Cc3c[nH]c4ccccc34)NC(=O)[C@H](C(C)C)NC(=O)[C@H](CC(C)C)NC(=O)[C@H](CCC(=O)O)NC(=O)CNC1=O)C(=O)N[C@@H]([C@@H](C)O)C(=O)N1CCC[C@@H]1C(=O)N1C[C@@H](N)C[C@H]1C(=O)N[C@@H](CC(=O)O)C(=O)N2 [Intermediate 21] (cyclo(CT[dP][Pro(4S-NH2)]DC[hSer]WHLGELVW); disulfide 1-6) | < 100 nM | < 100 nM
